This is an account of results in ChEMBL document CHEMBL1153190, “Novel neofusapyrones isolated from Verticillium dahliae as potent antifungal substances” (Bioorg Med Chem Lett, 2010).

Molecules are shown by their SMILES. The source made the active and inactive calls. The rule behind the calls is not given here.

The subject of one data set is Bipolaris oryzae. Put plainly: Antifungal activity against Cochliobolus miyabeanus at 100 ng/ml. The data set is classed as functional, organism-based.
The test system of another data set is HeLa. Put plainly: Cytotoxicity against human HeLa cells. The data set is classed as cell-based.
The next data set relates to HepG2. Put plainly: Cytotoxicity against human HepG2 cells. The data set is classed as cell-based.
Another data set relates to Staphylococcus aureus. Put plainly: Antibacterial activity against methicillin-resistant Staphylococcus aureus Isolate 87-7927 at 10 ug. It is filed as functional, organism-based.

`CCCCCCC(C)C/C(C)=C\C(C)/C=C(C)/C=C/C(O)C(C)c1cc(O)c([C@@H]2O[C@H](CO)C[C@H](O)[C@H]2O)c(=O)o1` (some centres not stated): in the data set with Bipolaris oryzae, the result was Active. Further, the Activity entry in the data set on HeLa and in the data set on HepG2 was “Non-toxic” each time.

`CCCCCCC(C)C/C(C)=C\C(C)/C=C(C)/C=C/C(O)C(C)(C)c1cc(O)c([C@@H]2O[C@H](CO)C[C@H](O)[C@H]2O)c(=O)o1` (some centres not stated) [DEOXYNEOFUSAPYRONE]: the outcome in the data set with Bipolaris oryzae and in the data set with Staphylococcus aureus was Active. Also, the Activity result in the data set on HeLa and in the data set with HepG2 was “Non-toxic” each time.
